Measured values reported in patent US11046686B2, “Thiadiazole IRAK4 compounds” (Gilead Sciences, Inc., priority 2018, dated 2021).
Read-outs that look alike come from different tables or passages of the source.

What was measured:
TNFα = test: IRAK4 Monocyte TNFα Cell Based Assay; design: species or system human; conditions: read-out: EC50 MONO TNF HTRF
Procedure, shortened: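 TNFα release quantified by HTRF (cryptate/XL665 antibody pair, overnight at RT) after 1 h compound pre-incubation (0.1% DMSO) and 4 h LPS challenge at 50 pg/ml, 37 °C, 5,000 monocytes per well. Signal ratio normalised between unstimulated (0%) and stimulated (100%) controls.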

IRAK4 enzyme = IRAK4 enzyme (Homo sapiens (Human), UniProt Q9NWZ3); test: IRAK4 Biochemical Assay (TR-FRET, STK1 KinEASE)
Sequence of IRAK4 enzyme (Q9NWZ3 whole entry): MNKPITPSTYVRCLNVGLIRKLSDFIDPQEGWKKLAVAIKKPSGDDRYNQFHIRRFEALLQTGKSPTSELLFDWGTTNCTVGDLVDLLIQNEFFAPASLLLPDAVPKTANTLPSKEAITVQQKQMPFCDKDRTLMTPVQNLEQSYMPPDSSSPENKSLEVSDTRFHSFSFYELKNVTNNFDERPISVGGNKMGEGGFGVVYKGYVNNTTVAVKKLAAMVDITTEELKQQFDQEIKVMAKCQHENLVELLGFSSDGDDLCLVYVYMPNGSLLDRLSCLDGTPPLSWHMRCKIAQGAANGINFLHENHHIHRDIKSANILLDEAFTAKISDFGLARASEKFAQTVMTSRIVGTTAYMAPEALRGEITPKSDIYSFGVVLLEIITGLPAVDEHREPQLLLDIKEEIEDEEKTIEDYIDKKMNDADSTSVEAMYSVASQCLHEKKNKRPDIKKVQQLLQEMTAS
Procedure, shortened: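 TR-FRET endpoint (KinEASE STK1): phosphopeptide detected with cryptate antibody and tracer after EDTA quench, ratio 665/615 nm, normalized to no-inhibitor wells as % inhibition. Reaction: 0.75 nM IRAK4, […] peptide, 500 μM ATP, pH 7.0 HEPES, 120 min room temperature, after 15 min compound preincubation with enzyme.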

[1] = Homo sapiens, Monocyte, human monocytes, second part of Table 2, compounds 33-343, unit inferred
[2] = second part of Table 2, compounds 33-343, unit inferred, read-out: IC50 IRAK4-HTBS

Row | SMILES | EC50 (TNFα; [1]) [nM] | IC50 (IRAK4 enzyme) [nM] | EC50 (TNFα; Homo sapiens, Monocyte) [nM] | EC50 (TNFα; human monocytes, second part of Table 2, compounds 33-343, unit inferred) [nM] | IC50 (IRAK4 enzyme; [2]) [nM]
1 | CC(=O)N[C@@H]1CCN(c2nnc(-c3cnc(-c4ccc5cc(C#N)cnn45)cc3N[C@H](C)C#N)s2)CC1(F)F [Example 151, N-((R)-1-(5-(4-(((R)-1-cyanoethyl)amino)-6-(3-cyanopyrrolo[1,2-b]pyridazin-7-yl)pyridin-3-yl)-1,3,4-thiadiazol-2-yl)-3,3-difluoropiperidin-4-yl)acetamide] | 5 | 1.03 |  |  | 
2 | CC(=O)N[C@H]1CCN(c2nnc(-c3cnc(-c4ccc5cc(C#N)cnn45)cc3N[C@H](C)C#N)s2)CC1(F)F [Example 152, N-((S)-1-(5-(4-(((R)-1-cyanoethyl)amino)-6-(3-cyanopyrrolo[1,2-b]pyridazin-7-yl)pyridin-3-yl)-1,3,4-thiadiazol-2-yl)-3,3-difluoropiperidin-4-yl)acetamide] | 10.7 | 0.58 |  |  | 
3 | CC(C)Nc1cc(-c2ccc3cc(C#N)cnn23)ncc1-c1nnc(N2CC[C@H](O)C(F)(F)C2)s1 [Example 161, (S)-7-(5-(5-(3,3-difluoro-4-hydroxypiperidin-1-yl)-1,3,4-thiadiazol-2-yl)-4-(isopropylamino)pyridin-2-yl)pyrrolo[1,2-b]pyridazine-3-carbonitrile] | 34.7 | 1.48 |  |  | 
4 | CC(C)Nc1cc(-c2ccc3cc(C#N)cnn23)ncc1-c1nnc(N2CC[C@@H](O)C(F)(F)C2)s1 [Example 162, (R)-7-(5-(5-(3,3-difluoro-4-hydroxypiperidin-1-yl)-1,3,4-thiadiazol-2-yl)-4-(isopropylamino)pyridin-2-yl)pyrrolo[1,2-b]pyridazine-3-carbonitrile] | 26.5 | 2.29 |  |  | 
5 | CC(C)Nc1cc(-c2ccc3cc(C#N)cnn23)ncc1-c1nnc(N2CC3(CNC(=O)C3)C2)s1 [Example 163, 7-(4-(isopropylamino)-5-(5-(7-oxo-2,6-diazaspiro[3.4]octan-2-yl)-1,3,4-thiadiazol-2-yl)pyridin-2-yl)pyrrolo[1,2-b]pyridazine-3-carbonitrile] | 15 | 0.54 |  |  | 
6 | CC(C)Nc1cc(-c2ccc3cc(C#N)cnn23)ncc1-c1nnc(N2CCOC(F)(F)C2)s1 [Example 167, 7-(5-(5-(2,2-difluoromorpholino)-1,3,4-thiadiazol-2-yl)-4-(isopropylamino)pyridin-2-yl)pyrrolo[1,2-b]pyridazine-3-carbonitrile] | 1000 | 1.81 |  |  | 
7 | CC(=O)N[C@@H]1CCN(c2nnc(-c3cnc(-c4ccc5cc(C#N)cnn45)cc3NC(C)C)s2)CC1(F)F [Example 168, (R)-N-(1-(5-(6-(3-cyanopyrrolo[1,2-b]pyridazin-7-yl)-4-(isopropylamino)pyridin-3-yl)-1,3,4-thiadiazol-2-yl)-3,3-difluoropiperidin-4-yl)acetamide] | 8.4 | 0.65 |  |  | 
8 | CC(=O)N[C@H]1CCN(c2nnc(-c3cnc(-c4ccc5cc(C#N)cnn45)cc3NC(C)C)s2)CC1(F)F [Example 169, (S)-N-(1-(5-(6-(3-cyanopyrrolo[1,2-b]pyridazin-7-yl)-4-(isopropylamino)pyridin-3-yl)-1,3,4-thiadiazol-2-yl)-3,3-difluoropiperidin-4-yl)acetamide] | 220 | 0.93 |  |  | 
9 | CC(=O)NC1CCC2(C1)CN(c1nnc(-c3cnc(-c4ccc5cc(C#N)cnn45)cc3NC(C)C)s1)C2 (stereo not drawn) [Example 170, N-(2-(5-(6-(3-cyanopyrrolo[1,2-b]pyridazin-7-yl)-4-(isopropylamino)pyridin-3-yl)-1,3,4-thiadiazol-2-yl)-2-azaspiro[3.4]octan-6-yl)acetamide] | 16 | 0.36 |  |  | 
10 | N#Cc1cnn2c(-c3cc(NC4CCOCC4)c(-c4nnc(N5CC6CC(C5)O6)s4)cn3)ccc2c1 [Example 177, 7-(5-(5-(6-oxa-3-azabicyclo[3.1.1]heptan-3-yl)-1,3,4-thiadiazol-2-yl)-4-((tetrahydro-2H-pyran-4-yl)amino)pyridin-2-yl)pyrrolo[1,2-b]pyridazine-3-carbonitrile] |  | 0.41 | 8.3 |  | 
11 | C[C@H](C#N)Nc1cc(-c2ccc3cc(C#N)cnn23)ncc1-c1nnc(N2CC3CC(C2)O3)s1 [Example 178, 7-(5-(5-(6-oxa-3-azabicyclo[3.1.1]heptan-3-yl)-1,3,4-thiadiazol-2-yl)-4-(((R)-1-cyanoethyl)amino)pyridin-2-yl)pyrrolo[1,2-b]pyridazine-3-carbonitrile] |  | 0.45 | 4.9 |  | 
12 | CC(=O)N[C@@H]1CCN(c2nnc(-c3cnc(-c4ccc5cc(C#N)cnn45)cc3NC3COC3)s2)CC1(F)F [Example 183, (R)-N-(1-(5-(6-(3-cyanopyrrolo[1,2-b]pyridazin-7-yl)-4-(oxetan-3-ylamino)pyridin-3-yl)-1,3,4-thiadiazol-2-yl)-3,3-difluoropiperidin-4-yl)acetamide] | 8.8 | 0.5 |  |  | 
13 | CC1(O)CCN(c2nnc(-c3cnc(-c4ccc5cc(C#N)cnn45)cc3NC3COC3)s2)CC1 [Example 187, 7-(5-(5-(4-hydroxy-4-methylpiperidin-1-yl)-1,3,4-thiadiazol-2-yl)-4-(oxetan-3-ylamino)pyridin-2-yl)pyrrolo[1,2-b]pyridazine-3-carbonitrile] | 10.8 | 0.66 |  |  | 
14 | CC1(O)CCN(c2nnc(-c3cnc(-c4ccc5cc(C#N)cnn45)cc3NC3CCOCC3)s2)CC1 [Example 188, 7-(5-(5-(4-hydroxy-4-methylpiperidin-1-yl)-1,3,4-thiadiazol-2-yl)-4-((tetrahydro-2H-pyran-4-yl)amino)pyridin-2-yl)pyrrolo[1,2-b]pyridazine-3-carbonitrile] | 7.6 | 1.07 |  |  | 
15 | CC(C)Nc1cc(-c2ccc3cc(C#N)cnn23)ncc1-c1nnc(N2CC[C@](C)(O)[C@@H](F)C2)s1 [Example 190, 7-(5-(5-((3S,4S)-3-fluoro-4-hydroxy-4-methylpiperidin-1-yl)-1,3,4-thiadiazol-2-yl)-4-(isopropylamino)pyridin-2-yl)pyrrolo[1,2-b]pyridazine-3-carbonitrile] | 11.7 | 1.39 |  |  | 
16 | CC(C)Nc1cc(-c2ccc3cc(C#N)cnn23)ncc1-c1nnc(N2CC[C@@](C)(O)[C@H](F)C2)s1 [Example 191, 7-(5-(5-((3R,4R)-3-fluoro-4-hydroxy-4-methylpiperidin-1-yl)-1,3,4-thiadiazol-2-yl)-4-(isopropylamino)pyridin-2-yl)pyrrolo[1,2-b]pyridazine-3-carbonitrile] | 22.9 | 1.15 |  |  | 
17 | CC(C)Nc1cc(-c2ccc3cc(C#N)cnn23)ncc1-c1nnc(N2CC[C@](C)(O)[C@H](F)C2)s1 [Example 192, 7-(5-(5-((3R,4S)-3-fluoro-4-hydroxy-4-methylpiperidin-1-yl)-1,3,4-thiadiazol-2-yl)-4-(isopropylamino)pyridin-2-yl)pyrrolo[1,2-b]pyridazine-3-carbonitrile] | 24.6 | 1.21 |  |  | 
18 | CC(=O)NC1[C@@H]2COC[C@H]1CN(c1nnc(-c3cnc(-c4ccc5cc(C#N)cnn45)cc3NC(C)C)s1)C2 (stereo partly drawn) [Example 193, N-((1R,5S)-7-(5-(6-(3-cyanopyrrolo[1,2-b]pyridazin-7-yl)-4-(isopropylamino)pyridin-3-yl)-1,3,4-thiadiazol-2-yl)-3-oxa-7-azabicyclo[3.3.1]nonan-9-yl)acetamide] | 4.1 | 0.68 |  |  | 
19 | CC(=O)NC1CCC(F)(c2nnc(-c3cnc(-c4ccc5cc(C#N)cnn45)cc3NC(C)C)s2)CC1 (stereo not drawn) [Example 194, N-(4-(5-(6-(3-cyanopyrrolo[1,2-b]pyridazin-7-yl)-4-(isopropylamino)pyridin-3-yl)-1,3,4-thiadiazol-2-yl)-4-fluorocyclohexyl)acetamide] | 64 | 0.75 |  |  | 
20 | CC(=O)NC12C3C4C1C1C2C3C41c1nnc(-c2cnc(-c3ccc4cc(C#N)cnn34)cc2NC(C)C)s1 (stereo not drawn) [Example 197, N-(4-(5-(6-(3-cyanopyrrolo[1,2-b]pyridazin-7-yl)-4-(isopropylamino)pyridin-3-yl)-1,3,4-thiadiazol-2-yl)cuban-1-yl)acetamide] | 32.9 | 1.57 |  |  | 
21 | C[C@]1(O)CCN(c2nnc(-c3cnc(-c4ccc5cc(C#N)cnn45)cc3NC3CCOCC3)s2)C[C@@H]1F [Example 204, 7-(5-(5-((3S,4S)-3-fluoro-4-hydroxy-4-methylpiperidin-1-yl)-1,3,4-thiadiazol-2-yl)-4-((tetrahydro-2H-pyran-4-yl)amino)pyridin-2-yl)pyrrolo[1,2-b]pyridazine-3-carbonitrile] | 3.5 | 0.35 |  |  | 
22 | C[C@]1(O)CCN(c2nnc(-c3cnc(-c4ccc5cc(C#N)cnn45)cc3NC3COC3)s2)C[C@@H]1F [Example 207, 7-(5-(5-((3S,4S)-3-fluoro-4-hydroxy-4-methylpiperidin-1-yl)-1,3,4-thiadiazol-2-yl)-4-(oxetan-3-ylamino)pyridin-2-yl)pyrrolo[1,2-b]pyridazine-3-carbonitrile] | 7.9 | 0.69 |  |  | 
23 | C[C@]1(O)CC[C@@H](c2nnc(-c3cnc(-c4ccc5cc(C#N)cnn45)cc3NC3COC3)s2)CC1 [Example 208, 7-(5-(5-((1s,4s)-4-hydroxy-4-methylcyclohexyl)-1,3,4-thiadiazol-2-yl)-4-(oxetan-3-ylamino)pyridin-2-yl)pyrrolo[1,2-b]pyridazine-3-carbonitrile] |  |  |  | 13.6 | 0.67
24 | CC(C)Nc1cc(-c2ccc3cc(C#N)cnn23)ncc1-c1nncs1 [Example 211, 7-(4-(isopropylamino)-5-(1,3,4-thiadiazol-2-yl)pyridin-2-yl)pyrrolo[1,2-b]pyridazine-3-carbonitrile] | 78.2 |  |  |  | 0.98
